Reference: PubChem BioAssay (NCI)
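These data come from cells grown in 96-well plates and exposed to compound for 48 hours at five concentrations. GI50 = concentration required for 50% inhibition of growth. The concentration for full growth arrest is given as TGI.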

Assays:
Assay in all cases: NCI anticancer screen, dose series, 48 h
[1] = system: U251 CNS
[2] = system: NCI-H460 lung
[3] = system: MOLT-4 leukemia
[4] = system: HS 578T breast
[5] = system: SR leukemia
[6] = system: A549 NSCLC
[7] = system: MALME-3M melanoma
[8] = system: SNB-75 CNS
[9] = system: DU-145 prostate
[10] = system: SN12C renal
[11] = system: MCF7 breast
[12] = system: PC-3 prostate
[13] = system: OVCAR-3 ovarian
[14] = system: SF-295 CNS
[15] = system: HCT-116 colon
[16] = system: CCRF-CEM leukemia
[17] = system: HOP-92 NSCLC
[18] = system: SK-MEL-5 melanoma
[19] = system: LOX IMVI melanoma
[20] = system: SNB-19 CNS
[21] = system: HCC-2998 colon
[22] = system: TK-10 renal
[23] = system: NCI/ADR-RES ovarian
[24] = system: COLO 205 colon
[25] = system: HCT-15 colon
[26] = system: ACHN renal
[27] = system: HT29 colon
[28] = system: 786-0 renal
[29] = system: NCI-H226 lung
[30] = system: BT-549 breast
[31] = system: MDA-MB-435
[32] = system: OVCAR-8 ovarian
[33] = system: MDA-MB-231 breast
[34] = system: NCI-H23 lung
[35] = system: NCI-H522 lung
[36] = system: IGROV1 ovarian
[37] = system: OVCAR-5 ovarian
[38] = system: SK-MEL-2 melanoma
[39] = system: UACC-257 melanoma
[40] = system: EKVX NSCLC
[41] = system: SF-268 CNS
[42] = system: T-47D breast
[43] = system: SF-539 CNS
[44] = system: UO-31 renal
[45] = system: A498 renal
[46] = system: SW-620 colon
[47] = system: UACC-62 melanoma
[48] = system: KM12 colon
[49] = system: RXF 393 renal
[50] = system: CAKI-1 renal
[51] = system: HL-60(TB) leukemia
[52] = system: OVCAR-4 ovarian
[53] = system: SK-MEL-28 melanoma
[54] = system: K-562 leukemia
[55] = system: HOP-62 NSCLC
[56] = system: M14 melanoma
[57] = system: SK-OV-3 ovarian

SMILES: COc1ccc(-c2cc(-c3ccccc3)nc(SCCCC(=O)NO)n2)cc1OC
- GI50 [1]: 1510 nM
- TGI [1]: 7.69 µM
- GI50 [2]: 621 nM
- TGI [2]: 9.81 µM
- GI50 [3]: 832 nM
- TGI [3]: 11.4 µM
- GI50 [4]: 1410 nM
- TGI [4]: 9.44 µM
- GI50 [5]: 339 nM
- TGI [5]: 20.4 µM
- GI50 [6]: 2060 nM
- TGI [6]: 7.05 µM
- GI50 [7]: 761 nM
- TGI [7]: 5.71 µM
- GI50 [8]: 1090 nM
- TGI [8]: 4.51 µM
- GI50 [9]: 1410 nM
- TGI [9]: 6.85 µM
- GI50 [10]: 1540 nM
- TGI [10]: 6.15 µM
- GI50 [11]: 2300 nM
- TGI [11]: 9.63 µM
- GI50 [12]: 1390 nM
- TGI [12]: 5.62 µM
- GI50 [13]: 1320 nM
- TGI [13]: 5.36 µM
- GI50 [14]: 887 nM
- TGI [14]: 2510 nM
- GI50 [15]: 701 nM
- TGI [15]: 10 µM
- GI50 [16]: 398 nM
- TGI [16]: 11.1 µM
- GI50 [17]: 1140 nM
- TGI [17]: 3.99 µM
- GI50 [18]: 631 nM
- TGI [18]: 2090 nM
- GI50 [19]: 1070 nM
- TGI [19]: 2440 nM
- GI50 [20]: 2290 nM
- TGI [20]: 10.9 µM
- GI50 [21]: 1440 nM
- TGI [21]: 3.59 µM
- GI50 [22]: 409 nM
- TGI [22]: 8.87 µM
- GI50 [23]: 793 nM
- TGI [23]: 4.35 µM
- GI50 [24]: 2100 nM
- TGI [24]: 5.95 µM
- GI50 [25]: 406 nM
- TGI [25]: 2620 nM
- GI50 [26]: 410 nM
- TGI [26]: 1810 nM
- GI50 [27]: 2080 nM
- TGI [27]: 7.06 µM
- GI50 [28]: 1280 nM
- TGI [28]: 5.02 µM
- GI50 [29]: 1690 nM
- TGI [29]: 5.54 µM
- GI50 [30]: 3.32 µM
- TGI [30]: 12.4 µM
- GI50 [31]: 1740 nM
- TGI [31]: 6.28 µM
- GI50 [32]: 490 nM
- TGI [32]: 11.9 µM
- GI50 [33]: 1560 nM
- TGI [33]: 8.27 µM
- GI50 [34]: 1570 nM
- TGI [34]: 4.8 µM
- GI50 [35]: 1320 nM
- TGI [35]: 5.36 µM
- GI50 [36]: 1640 nM
- TGI [36]: 5.05 µM
- GI50 [37]: 1160 nM
- TGI [37]: 5.43 µM
- GI50 [38]: 1760 nM
- TGI [38]: 7.39 µM
- GI50 [39]: 1430 nM
- TGI [39]: 7.94 µM
- GI50 [40]: 1180 nM
- TGI [40]: 8.6 µM
- GI50 [41]: 2150 nM
- TGI [41]: 5.68 µM
- GI50 [42]: 824 nM
- TGI [42]: 9.39 µM
- GI50 [43]: 1350 nM
- TGI [43]: 3.38 µM
- GI50 [44]: 338 nM
- TGI [44]: 1480 nM
- GI50 [45]: 345 nM
- TGI [45]: 1720 nM
- GI50 [46]: 539 nM
- TGI [46]: 11.3 µM
- GI50 [47]: 1060 nM
- TGI [47]: 3.11 µM
- GI50 [48]: 2830 nM
- TGI [48]: 11 µM
- GI50 [49]: 1010 nM
- TGI [49]: 2780 nM
- GI50 [50]: 452 nM
- TGI [50]: 2830 nM
- GI50 [51]: 3.24 µM
- TGI [51]: 11.7 µM
- GI50 [52]: 1680 nM
- TGI [52]: 7.76 µM
- GI50 [53]: 1230 nM
- TGI [53]: 3.66 µM
- GI50 [54]: 812 nM
- TGI [54]: > 100 µM
- GI50 [55]: 626 nM
- TGI [55]: 3.38 µM
- GI50 [56]: 1020 nM
- TGI [56]: 2820 nM
- GI50 [57]: 1690 nM
- TGI [57]: 5.05 µM
